Data taken from patent publication US11440907B1 (Merck Patent GmbH, priority 2018, dated 2022).

Each compound was assayed on XBP1(u)-luciferase splicing reporter in HepG2 hepatoma cells (assay: HepG2 XBP1 reporter assay (XBP1(u)-Luc)). Details: Homo sapiens, 6 h, six hours after addition of compound.
Type: cell-based
Description: HepG2 XBP1 Reporter Assay
HepG2 hepatoma cells were transduced with a retrovirus encoding the cDNA for unspliced (u) XBP1, which contains a non-processed intron, fused to the cDNA for firefly luciferase. Upon induction of ER stress, the non-processed intron of XBP1(u) is spliced out by active IRE1alpha endonuclease. The resulting spliced (s) XBP1 is now in frame with luciferase which causes the production of active luciferase protein, resulting in bioluminescence
HepG2 XBP1(u)-Luc cells were plated […] Cultured cells with a stably transfected reporter construct were plated at approximately 30,000 cells per well into 96 well multi-well plates for twenty four hours. The testing compounds were then added to the wells in 3-fold serial dilutions using a twenty seven micromolar top concentration. A series of control wells for each cell type received only compound solvent. Six hours after the addition of compound, reporter activity for luciferase was assayed, by addition of the SteadyGlo luminescence reagent (Promega). The reporter luminescence activity was measured using Pherastar plate reader (BMG Labtech). Readings was normalized to DMSO only treated cells, and normalized activities were then used in the IC50 calculations. The HepG2 XBP1 reporter assay data are summarized in Tables 3-5: A<0.6 μM; 0.6 μM≤B<2.0 μM; 2.0 μM≤C<5.0 μM; D≥5.0 μM.

Structure (SMILES)	IC50
Cc1cc(N2CCCOCC2c2ccc3ncnn3c2)nc(N)n1 [D-175]	≥ 5000 nM
CCc1cc(N2CCCOCC2c2cc(O)c(CS(C)(=O)=O)cc2Cl)nc(N)n1 [D-98]	< 600 nM
COc1cc(OC)c(C2COCCCN2c2cc(C)nc(N)n2)cc1O [D-127]	< 600 nM
Cc1cc(N2CCCOC[C@H]2c2cc(O)c(OC(F)(F)F)cc2Cl)nc(N)n1 [D-184]	≥ 5000 nM
Cc1cc(N2CCCOC[C@@H]2c2cc(O)c(C(=O)NC(C)C)cc2Cl)nc(N)n1 [D-123]	2000 to 5000 nM
Cc1cc(N2CCCOC[C@H]2c2cc(O)c(CS(C)(=O)=O)cc2Cl)nc(N)n1 [D-171]	≥ 5000 nM
C#CCOc1cc(Cl)c([C@H]2COCCCN2c2cc(C)nc(N)n2)cc1OC [D-105]	< 600 nM
CNC(=O)c1cc(Cl)c([C@@H]2COCCCN2c2cc(C)nc(N)n2)cc1O [D-182]	≥ 5000 nM
Cc1cc(N2CCCOCC2c2ccc(S(N)(=O)=O)cc2)nc(N)n1 [D-102]	≥ 5000 nM
CCc1cc(N2CCCOCC2c2cc(O)c(S(C)(=O)=O)cc2Cl)nc(N)n1 [D-87]	≥ 5000 nM
C#Cc1ccccc1C1COCCCN1c1cc(C)nc(N)n1 [D-113]	600 to 2000 nM
CCc1cc(N2CCCOC[C@H]2c2ccc(OS(C)(=O)=O)cc2Cl)nc(N)n1 [D-162]	≥ 5000 nM
Cc1cc(N2CCCOCC2c2ccc(C(=O)O)cc2Cl)nc(N)n1 [D-187]	≥ 5000 nM
C#CCOc1cc(Cl)c([C@@H]2COCCCN2c2cc(C)nc(N)n2)cc1OC [D-178]	≥ 5000 nM
Cc1cc(N2CCCOC[C@@H]2c2cc(O)c(C(N)=O)cc2Cl)nc(N)n1 [D-115]	600 to 2000 nM
CCOc1cc(C2COCCCN2c2cc(C)nc(N)n2)c(Cl)cc1OCC(=O)NC(C)(C)C [D-47]	600 to 2000 nM
Cc1cc(N2CCCOC[C@H]2c2ccc([C@@H]3CCCN3)cc2Cl)nc(N)n1 [D-88]	2000 to 5000 nM
Cc1cc(N2CCCOC[C@@H]2c2cc3c(cc2Cl)NC[C@@](C)(C(=O)N2CCOCC2)O3)nc(N)n1 [D-126]	< 600 nM
Cc1cc(N2CCCOC[C@@H]2c2ccc(C3CCN(C4COC4)CC3)cc2Cl)nc(N)n1 [D-69]	600 to 2000 nM
Cc1cc(N2CCCOC[C@H]2c2cc(O)c(C(=O)N3CCOCC3)cc2Cl)nc(N)n1 [D-189]	≥ 5000 nM
Cc1cc(N2CCCOCC2c2ncc(CS(C)(=O)=O)cc2OC(F)F)nc(N)n1 [D-67]	600 to 2000 nM
Cc1cc(N2CCCOC[C@@H]2c2cc3c(cc2Cl)NC[C@@](C)(C(=O)NCCO)O3)nc(N)n1 [D-133]	< 600 nM

Structure (SMILES)	IC50
CS(=O)(=O)c1ccc(C2COCCCN2c2ccnc(N)n2)c(Cl)c1 [D-138]	≥ 5000 nM
CC(=O)Nc1cc(Cl)c(C2COCCCN2c2cc(C)nc(N)n2)cc1O [D-109]	< 600 nM
Cc1cc(N2CCCOCC2c2ccc(NC(=O)CC(C)C)cc2Cl)nc(N)n1 [D-92]	600 to 2000 nM
Cc1cc(N2CCCOCC2c2ccc3[nH]ncc3c2)nc(N)n1 [D-108]	2000 to 5000 nM
COC(=O)c1cc(C2COCCCN2c2cc(C)nc(N)n2)c(Cl)cc1C#N [D-77]	600 to 2000 nM
Cc1cc(N2CCCOC[C@H]2c2ncc(CS(C)(=O)=O)cc2Cl)nc(N)n1 [D-167]	≥ 5000 nM
Cc1cc(N2CCCOC[C@@H]2c2ccc([C@@H]3CCCN3)cc2Cl)nc(N)n1 [D-91]	< 600 nM
Cc1cc(N2CCCOC[C@@H]2c2ccc(C(C)(C)S(C)(=O)=O)cc2Cl)nc(N)n1 [D-191]	≥ 5000 nM
COc1ccc([C@@H]2COCCCN2c2cc(C)nc(N)n2)c(Cl)c1 [D-168]	≥ 5000 nM
Cc1cc(N2CCCOCC2c2ccc(NC(=O)CC3CC3)cc2Cl)nc(N)n1 [D-94]	2000 to 5000 nM
Cc1cc(N2CCCOCC2c2cc(O)c(OC(F)(F)F)cc2Cl)nc(N)n1 [D-74]	< 600 nM
Cc1cc(N2CCCOC[C@@H]2c2cc3c(cc2Cl)NC[C@@](C)(C(=O)O)O3)nc(N)n1 [D-181]	≥ 5000 nM
CCOc1cc(C2COCCCN2c2cc(C)nc(N)n2)c(Cl)cc1OCC(=O)OC [D-44]	600 to 2000 nM
Cc1cc(N2CCCOC[C@H]2c2ccc([C@H]3CCCN3)cc2Cl)nc(N)n1 [D-89]	2000 to 5000 nM
Cc1cc(N2CCCOCC2c2ccc(Br)cc2OC(F)(F)F)nc(N)n1 [D-140]	≥ 5000 nM
Cc1cc(N2CCCOC[C@@H]2c2cc3c(cc2Cl)NC[C@@](C)(C(N)=O)O3)nc(N)n1 [D-120]	< 600 nM
Cc1cc(N2CCCOCC2c2cc3c(cc2Cl)NC[C@@](C)(C(=O)OC(C)C)O3)nc(N)n1 (stereo partly drawn) [D-125]	< 600 nM
Cc1cc(N2CCCOCC2c2sc(Cl)nc2Cl)nc(N)n1 [D-103]	2000 to 5000 nM
CCOC(=O)c1cc(Cl)c(C2COCCCN2c2cc(C)nc(N)n2)cc1C#N [D-134]	≥ 5000 nM
CCOc1cc([C@@H]2COCCCN2c2cc(C)nc(N)n2)c(Cl)cc1OCC(N)=O [D-176]	≥ 5000 nM
Cc1cc(N2CCCOCC2c2cc(O)c(NC(=O)C3CC3)cc2Cl)nc(N)n1 [D-112]	< 600 nM

Same assay, conditions: Homo sapiens, 6 hours after compound addition, Table 4

Structure (SMILES)	IC50
Cc1cc(N2CC3(CC3)COCC2c2ccc(CS(C)(=O)=O)cc2Cl)nc(N)n1 (stereo not shown) [C-62, 4-[7-(2-Chloro-4-methanesulfonylmethyl-phenyl)-5-oxa-8-aza-spiro[2.6]non-8-yl]-6-methyl-pyrimidin-2-ylamine]	≥ 5000 nM
Cc1cc(N2CCCOCC2c2cc(F)c(-c3ccncc3)cc2Cl)nc(N)n1 (stereo not shown) [C-48]	600 to 2000 nM
Cc1cc(N2CCCOCC2c2cc(C)c(Cl)cc2Cl)nc(N)n1 (stereo not shown) [C-10]	2000 to 5000 nM
Cc1cc(N2CCCOCC2c2cc3c(cc2Cl)CCCN3)nc(N)n1 (stereo not shown) [C-88]	2000 to 5000 nM
CSCOc1ccc(C2COCCCN2c2cc(C)nc(N)n2)c(Cl)c1 (stereo not shown) [C-105, 4-[3-(2-Chloro-4-methylsulfanylmethoxy-phenyl)-[1,4]oxazepan-4-yl]-6-methyl-pyrimidin-2-ylamine]	< 600 nM
Cc1cc(N2CCCOCC2c2cc3c(cc2Cl)CCC3)nc(N)n1 (stereo not shown) [C-26]	600 to 2000 nM
Cc1cc(N2CCCOC[C@@H]2c2cc3c(cc2Cl)OCC(=O)N3)nc(N)n1 [C-67]	≥ 5000 nM
Cc1cc(N2CCCOC[C@@H]2c2cc(Cl)c(O)cc2Cl)nc(N)n1 [C-87]	600 to 2000 nM
COc1cc(Cl)c([C@@H]2COCCCN2c2cc(C)nc(N)n2)cc1OC [C-81]	≥ 5000 nM
CCOc1cc(Cl)c([C@@H]2COCCCN2c2cc(C)nc(N)n2)cc1OCC [C-104]	≥ 5000 nM
Cc1cc(N2CCCOCC2c2ccc(OC[C@H](O)CO)cc2Cl)nc(N)n1 (stereo partly drawn) [C-61, (R)-3-{4-[4-(2-Amino-6-methyl-pyrimidin-4-yl)-[1,4]oxazepan-3-yl]-3-chloro-phenoxy}-propane-1,2-diol]	< 600 nM
Cc1cc(N2CCCOCC2c2cc(C)c(O)cc2Cl)nc(N)n1 (stereo not shown) [C-128]	600 to 2000 nM
COc1cc(C2COCCCN2c2cc(C)nc(N)n2)c(Cl)cc1Cl (stereo not shown) [C-46]	2000 to 5000 nM
Cc1cc(N2CCCOC[C@@H]2c2ccc(CS(C)(=O)=O)cc2F)nc(N)n1 [C-50, 4-[(S)-3-(2-Fluoro-4-methanesulfonylmethyl-phenyl)-[1,4]oxazepan-4-yl]-6-methyl-pyrimidin-2-ylamine]	< 600 nM
COc1cc(C2COCCCN2c2cc(C)nc(N)n2)c(Cl)cc1OCC#N (stereo not shown) [C-98]	< 600 nM
CC1=C(F)CN(c2ccc([C@H]3COCCCN3c3cc(C)nc(N)n3)c(Cl)c2)CC1 [C-123]	600 to 2000 nM
Nc1nccc(N2CCCOC[C@H]2c2cc3c(cc2Cl)OCCCO3)n1 [C-71]	≥ 5000 nM
Cc1cc(N2CCCOCC2c2cc3c(cc2Cl)CCCN3C)nc(N)n1 (stereo not shown) [C-129]	≥ 5000 nM

Structure (SMILES)	IC50
Cc1cc(N2CCCOC[C@@H]2c2ccc(OC[C@@H](O)CO)cc2Cl)nc(N)n1 [C-64, (S)-3-{4-[(S)-4-(2-Amino-6-methyl-pyrimidin-4-yl)-[1,4]oxazepan-3-yl]-3-chloro-phenoxy}-propane-1,2-diol]	2000 to 5000 nM
Cc1cc(N2CCCOCC2c2cc(O)c(Cl)cc2Cl)nc(N)n1 (stereo not shown) [C-9]	600 to 2000 nM
Cc1cc(N2CCCOCC2c2cc(C)c(N3CCCC3)cc2Cl)nc(N)n1 (stereo not shown) [C-112]	600 to 2000 nM
CCCOc1cc(Cl)c(C2COCCCN2c2cc(C)nc(N)n2)cc1OC (stereo not shown) [C-47]	600 to 2000 nM
Cc1cc(N2CCCOC[C@@H]2c2cc(C(F)(F)F)c(N)cc2Cl)nc(N)n1 [C-119]	< 600 nM
Cc1cc(N2CCCOCC2c2cc3c(cc2Cl)OCC(C)(C)CO3)nc(N)n1 (stereo not shown) [C-55]	600 to 2000 nM
COc1cc(Cl)c([C@H]2COCCCN2c2cc(C)nc(N)n2)cc1OC(C)C [C-144]	600 to 2000 nM
CCOC(=O)[C@H](C)Oc1cc(Cl)c([C@H]2COCCCN2c2cc(C)nc(N)n2)cc1OC [C-150]	600 to 2000 nM
COc1cc(Cl)c([C@@H]2COCCCN2c2cc(C)nc(N)n2)cc1O [C-94]	< 600 nM
COc1cc([C@@H]2COCCCN2c2cc(C)nc(N)n2)c(Cl)cc1O [C-79]	≥ 5000 nM
COc1cc(Cl)c(C2COCCCN2c2cc(C)nc(N)n2)cc1OC1CCC1 (stereo not shown) [C-56]	2000 to 5000 nM
COc1cc([C@H]2COCCCN2c2cc(C)nc(N)n2)c(Cl)cc1O [C-78]	< 600 nM
CCOc1cc(Cl)c([C@H]2COCCCN2c2cc(C)nc(N)n2)cc1OC [C-85]	< 600 nM
CCNc1cc(Cl)c([C@H]2COCCCN2c2cc(C)nc(N)n2)cc1C [C-146]	< 600 nM
CC(=O)Nc1cc(Cl)c(N2CCCOCC2c2cc(C)nc(N)n2)cc1C (stereo not shown) [C-143]	600 to 2000 nM
Cc1cc(N2CCCOC[C@@H]2c2cc3c(cc2Cl)CCN3)nc(N)n1 [C-134]	< 600 nM
COc1cc(Cl)c(C2COCCCN2c2cc(C)nc(N)n2)cc1F (stereo not shown) [C-28]	600 to 2000 nM
Cc1cc(N2CCCOC[C@H]2c2cc3c(cc2Cl)NC(=O)CO3)nc(N)n1 [C-131]	600 to 2000 nM
